Data from patent US9096643B2, “Cell-protective peptides and uses thereof” (priority 2010, dated 2015).
No end group written: not given here.

Key:
[1] = system: neonatal rat CMs (heart cells); experiment: Heart cell attachment on peptide-modified Az-chitosan coated coverslips (brightfield cell counts); assay type: cell-based, rat (Sprague-Dawley); details: coated glass coverslips, 1, 3 and 5 days of incubation, FIG. 1
Protocol: Neonatal (1 to 2 day-old) Sprague-Dawley rats were euthanized according to the procedure approved by the University of Toronto Committee on Animal Care. […] The supernatant from 5 collagenase digests of the tissues was collected and centrifuged at 750 rpm (94 g) for 4 min, resuspended in culture medium and pre-plated into T75 flasks (Falcon) for 1 hour to separate the non-adherent cells (enriched CMs) from the adherent cells (non-myocytes). The enriched CMs were used in the studies. The CM culture medium consisted of Dulbecco's Modified Eagle Medium (DMEM) with 4.5 g/L glucose, 4 mM L-glutamine, 10% certified fetal bovine serum (FBS), 100 U/mL penicillin, 100 μg/mL streptomycin, and 10 mM 4-2-hydroxyethyl-1-piperazineethanesulfonic acid buffer (HEPES, Gibco/Invitrogen).
The surfaces used for microscopy analysis were created on circular 12 mm diameter glass coverslips (VWR). These were plasma treated (WS-400BZ-6NPP/Lite, Laurell Technologies) for 30 s. […]
The day before cells were ready to be seeded, the surfaces in the 12-well plates were sterilized by germicidal UV illumination overnight. […]
Brightfield images were taken with 10× magnification of surfaces with cells (N=3) to visualize the morphology and cell attachment (IX81, Olympus). […] The number of cells was then counted using the cell counting plug-in on ImageJ (NIH version 1.36b).

[2] = system: Human ESC-derived cardiac cells (Hes2); experiment: TUNEL assay with cTnT co-localization of human ESC-derived cardiac cells; assay type: cell-based; details: 50 μM, FIG. 21
Protocol: (§1) Human ESC-derived cardiac cell culture, were derived from Day 20 EBs, consisting of greater than 50% cardiomyocytes obtained by directed differentiation of human ES (Hes2) cells as described by Yang et al. (Nature 453, 524-528 (2008)). EBs were dissociated using Collagenase I (Invitrogen) for 2 hrs and 0.05% Trypsin-EDTA (Invitrogen) for 5 min and plated at 40000 cells/cm^2 onto 0.2% gelatin-coated plates in Stempro 34 medium supplemented with VEGF (10 ng/ml) and DKK1 (150 ng/ml). Cells were cultured in the presence of 50 μM QHREDGS, 50 μM DGQESHR (Biomatik) or PBS until they formed a beating monolayer, around 10 days. Peptides were replenished during media changes every 3 days. 100 μM H2O2 (Sigma, dissolved in PBS) was added to culture media for 10 min, washed, and analyzed immediately for CFDA-Live/PI-Dead. Live cells were counted using the cell counter plug in for ImageJ. 0.5 μM or 2.5 μM taxol (Sigma, dissolved in DMSO) was added to culture media for 24 hrs, and the extent of apoptosis was analyzed immediately using the Apo-ONE Homogeneous Caspase Assay (Promega), or TUNEL assay (Roche) as described above. A PBS control was used for H2O2 and DMSO control was used for taxol.

human iPS cells = experiment: Teratoma formation after grafting into hind-limb muscles of NOD-SCID mice; assay type: in vivo; details: 10 passages in 50 μM, grafted into NOD-SCID mice
[3] = system: Rat neonatal cardiomyocytes; experiment: Hydrogen peroxide treatment, Trypan blue viability (monolayer); assay type: cell-based; details: 500 μM peptide 1.5 hr, 100 μM H2O2 10 min, FIG. 5A
Protocol: Rat neonatal cardiomyocytes were incubated for 1.5 hr with 500 μM QHREDGS, scrambled (scram) QHREDGS peptide (DGQESHR), or PBS control (PBS); 200 nM ang 1 or its matched buffer control [0.1% bovine serum albumin (BSA) in PBS] in the culture medium. The culture medium consisted of Dulbecco's Modified Eagle's Medium (DMEM) with 0.5% BSA and cytosine-β-D-arabinofuranoside (anti-proliferative). Reactive oxygen species were increased by addition of 100 μM H2O2 for 10 min (37° C., 5% CO2) (N=6/group). Cell viability was measured using a Trypan blue stain. Trypan blue dye is impermeable to viable cells, but enters dead/damaged cells with impaired membrane integrity, staining cells blue.

[4] = system: Human ESC-derived cardiac cells (Hes2); experiment: Total cell number of monolayer human ESC-derived cardiac cells; assay type: cell-based; details: 50 μM, 10 days, vs PBS control and DGQESHR
Protocol: as §1

[5] = system: Rat neonatal cardiomyocytes; experiment: ATP assay (CellTiter-Glo) in serum-starved cardiomyocytes; assay type: cell-based; details: 500 μM peptide, 1 d
Protocol: Rat neonatal cardiomyocytes were incubated with PBS (control), 500 μM QHREDGS, scrambled QHREDGS peptide, GRGDSP peptide or 400 nM ang 1 or ang2 in DMEM/0.5% BSA/cytosine-β-D-arabinofuranoside (37° C., 5% CO2, 1 d). ATP levels were quantified using the CellTiter-Glo Luminescent Assay (Promega) as per manufacturer's instructions (N=6/group). Luminescence was measured using a Wallac 1420 microplate reader.

Substance	cell adhesion / cell attachment to coated surface [1]	reduction of basal apoptosis in cardiomyocytes (TUNEL/cTnT) [2]	teratoma formation (human iPS cells)	cardiomyocyte viability after exposure to H2O2 [3]	increase in number of cardiac cells/well [4]	cardiac myocyte ATP levels [5]
Az-chitosan-QHREDGS: QHREDGS peptide covalently conjugated to Az-chitosan by EDC chemistry (also: covalently conjugated to Az-chitosan by EDC chemistry, site not given here)	significantly greater cell adhesion					
QHREDGS (angiopoietin 1 peptide)		greater than 10 fold	continued to form teratomas	maintain cardiomyocyte viability	greater than 2 fold	substantially increased
